Measurements published in article PMC8703873, “Structure and Activity of a Selective Antibiofilm Peptide SK-24 Derived from the NMR Structure of Human Cathelicidin LL-37” (Pharmaceuticals, 2021).
No end group written: not given here.

Assays:
[1] = test system: clinical and antibiotic-resistant pathogens (panel of Table 3); assay type: cell-based; conditions: all pathogens of Table 3; peptide 32 µM
Protocol: (§1) The antibiotic-resistant pathogens used in this study include the Gram-positive bacteria Enterococcus faecium V286-17 and Staphylococcus aureus USA300 LAC and the Gram-negative bacteria Klebsiella pneumoniae E406-17, Acinetobacter baumannii B28-16, Pseudomonas aeruginosa E411-17, and Escherichia coli E423-17. All bacteria were cultivated in tryptic soy broth (TSB) at 37 °C, 220 rpm.
(§2) The antibacterial activity of peptides was evaluated using a standard broth microdilution protocol with minor modifications. In brief, peptides were made at various concentrations, 10 μL per well in a 96-well polystyrene microplate. Logarithmic phase bacterial cultures (i.e., optical density (OD) at 600 nm ≈ 0.5) were diluted to 0.001 OD, and aliquots of 90 μL were added to each well. Untreated bacterial culture and medium were included as positive and negative controls, respectively. Plates were incubated at 37 °C overnight and read at 630 nm using a ChroMate Microplate Reader (Awareness Technology, Palm City, FL, USA). […] Our previously designed peptide 17BIPHE2 [32] was included as a positive control, and RI-10, a peptide without antibacterial activity in rich media, was utilized as a negative control.

[2] = test system: S. aureus USA300 LAC preformed biofilms; conditions: S. aureus USA300 LAC and other clinical strains (USA200, USA400, Mu50); cited from earlier work
Protocol: Here, we compared the antibiofilm activity of SK-24 with that of GF-17, GI-20, and 17BIPHE2 against the 24 h preformed biofilms of S. aureus USA300. […] Only SK-24 a ...

S. aureus USA300 LAC [3] = experiment: Membrane depolarization (DiBAC4(3)); assay type: cell-based, Staphylococcus aureus; conditions: peptide 8 µM; similar trends at 16 and 32 µM; DiBAC4(3) fluorescence
Protocol: The experiment was conducted as described. In brief, an overnight culture of S. aureus USA300 LAC was subcultured in a fresh TSB medium and grown to the exponential phase. Cells were spun using centrifugation and washed twice with PBS, and resuspended in twice the volume of PBS containing 25 mM glucose and incubated at 37 °C for 15 min. For membrane depolarization measurements, 500 nM (final concentration) of the dye DiBAC4 (3) (bis-(1,3- dibutylbarbituric acid) trimethine oxonol) (AnaSpec, San Jose, CA, USA) was added and vortexed gently. Aliquots of 90 μL of the energized bacteria solution were loaded to the wells, and the plate was fed into a FLUOstar Omega microplate reader. Fluorescence was read for 20 min at excitation and emission wavelengths of 485 and 520 nm, respectively, to get dye normalization. Then 10 μL of diluted peptide solutions were added and gently mixed. Fluorescence readings were recorded for 40 min, where Triton X-100 (0.1%) was used as a positive control.

E. faecium V284-17 = assay type: cell-based, Enterococcus faecium; conditions: V284-17
[4] = test system: A. baumannii B28-16 preformed biofilms; experiment: Disruption of preformed biofilms (XTT); assay type: cell-based, Acinetobacter baumannii; conditions: biofilms formed for 24, 48 and 72 h, peptide at 8, 16, 32 or 64 μM for 24 h
Protocol: The antibiofilm activities of peptides against the preformed biofilms of A. baumannii B28-16 and S. aureus USA300 LAC were evaluated as follows. Bacteria in the logarithmic growth phase were adjusted to a cell density of 10^5 colony forming unit (CFU)/mL. Two hundred microliter cells were seeded into each well of the 96-well plates. The plates were incubated at 37 °C to allow for the formation of biofilm for 24, 48, and 72 h, respectively. The planktonic cells were then removed, followed by a wash. The biofilms were then treated with 20 µL of 10× two-fold diluted peptides and 180 µL of fresh TSB media for 24 h at 37 °C. Cultures treated with water without peptide served as the positive control, and media treated with water was used as the negative control. To quantify the antibiofilm activity of the peptides, the XTT [2, 3-bis (2-methyloxy-4-nitro-5-sulfophenyl)-2H-tertazolium-5-carboxanilide] assay staining method was used to quantitate the live cells. Absorbance was read at 450 nm using a ChroMate microliter plate reader. The percentage biofilm growth for the peptide was plotted by assuming 100% biofilm growth in untreated bacterial control wells. Data were represented as mean ± standard deviation (SD). The data are statistically significant at p < 0.05. Plots were generated using GraphPad Prism v7 (GraphPad Software, San Diego, CA, USA).

E. coli E423-17 = assay type: cell-based, Escherichia coli
Protocol: as §1, §2

A. baumannii B28-16 [5] = experiment: Membrane permeabilization (propidium iodide); assay type: cell-based, Acinetobacter baumannii; conditions: peptide 16 µM; propidium iodide fluorescence, 2 h, PBS, 37 °C
Protocol: (§3) Membrane permeabilization was evaluated as described. In brief, bacteria were inoculated and grown overnight. A second inoculation was made and let bacteria grow to the exponential phase. Bacteria were then spun, washed, and resuspended in the same volume of PBS. A series of peptide solutions (10×) was made via two-fold dilution in a 96-well plate (10 µL each). All wells were aliquoted with 2 µL of propidium iodide (20 µM), followed by adding 88 µL of S. aureus USA300 or A. baumannii B28-16 (OD600 ~0.11 in PBS). The plate was incubated at 37 °C with continuous shaking at 100 rpm in a FLUOstar Omega microplate reader (BMG Labtech Inc., Cary, NC, USA). Fluorescence was recorded every 5 min for 2 h with excitation and emission wavelengths of 485 and 620 nm. The data were analyzed by the vendor’s software using averaged values from duplicated experiments.

A. baumannii B28-16 [6] = assay type: cell-based, Acinetobacter baumannii
Protocol: as §1, §2

K. pneumoniae E406-17 = assay type: cell-based, Klebsiella pneumoniae; conditions: E406-17
Protocol: as §1, §2

[7] = HPLC retention time (measure of peptide hydrophobicity); assay type: physicochemical; conditions: chromatographic, Waters C8 symmetry hydrophobic column, as described in ref 34; used as indicator of peptide hydrophobicity
Excerpt: In the membrane-bound LL-37 structure determined by 3D NMR spectroscopy, a hydrophobic gap exists (Figure 1A). The location of a hydrophilic S9 on the hydrophobic surface of LL-37 splits the long helix into two hydrophobic domains (gold sticks). The SK-24 peptide we identified here corresponds to the long hydrophobic domain [26]. The amino acid sequence of SK-24, along with LL-37 and its derived antimicrobial peptides, is depicted in Figure 1B. Peptide parameters, including net charge, hydrophobic content, Boman index, GRAVY, hydrophobicity, and hydrophobic moment of each peptide, were calculated using online tools, such as the APD [8] and HeliQuest (Table 1). Except for the shortest RI-10 (net charge +3), LL-37 and its other derived peptides have net charges +5 or +6, above the average net charge (+3.3) of natural antimicrobial peptides registered in the APD [8, 35, 36]. Overall, the hydrophobic percentages (Pho) of these peptides calculated in the APD are proportional to the hydrophobicity and hydrophobic moment calculated by HeliQuest in Table 1. Of note, LL-37 has the highest net charge (+6) and Boman index but the lowest Pho%, GRAVY, and hydrophobic moment.
All peptides were chemically synthesized and purified to >95% (Genemed Synthesis, San Antonio, TX, USA). The quality of each peptide was determined based on mass spectrometry (MS) and high-performance liquid chromatography (HPLC). Peptide stock solutions were freshly made by solubilizing in autoclaved distilled water, and their concentrations were quantitated using UV spectroscopy based on the absorbance difference at 215 and 225 nm as described. Peptide retention time was measured on a Waters C8 symmetry hydrophobic column as described. Other chemicals were purchased from Sigma (St. Louis, MO, USA) unless specified.

S. aureus USA300 LAC [8] = experiment: Membrane permeabilization (propidium iodide); assay type: cell-based, Staphylococcus aureus; conditions: peptide 8 µM; propidium iodide fluorescence, 2 h, PBS, 37 °C
Protocol: as §3

S. aureus USA300 = assay type: cell-based, Staphylococcus aureus
Protocol: as §1, §2

P. aeruginosa E411-17 = assay type: cell-based, Pseudomonas aeruginosa; conditions: E411-17
Protocol: as §1, §2

RIVQRIKDFL-NH2 [RI-10]
Inhibitory activity at 32 µM [1]: did not show any inhibitory activity | Disruption of 24 h preformed biofilms (words, found previously) [2]: neither LL-37 nor RI-10 was able to disrupt | Membrane depolarization ability (order, words) (S. aureus USA300 LAC [3]): unable to produce a similar effect | MIC (E. faecium V284-17): >32 µM | Disruption of preformed biofilms [4]: unable to disrupt | MIC (E. coli E423-17): >32 µM | Membrane permeation (A. baumannii B28-16 [5]): some membrane permeation | MIC (A. baumannii B28-16 [6]): >32 µM | MIC (K. pneumoniae E406-17): >32 µM | tHPLC (HPLC retention time) [7]: 8.831 min | Membrane permeation (S. aureus USA300 LAC [8]): some membrane permeation | MIC (S. aureus USA300): >32 µM | MIC (P. aeruginosa E411-17): >32 µM
